Assay results taken from patent US4148996A, “3,7-Disubstituted cephalosporins” (Societa Farmaceutici Italia S.p.A., priority 1976, dated 1979).
Values after ≈ are worked out from the molar mass of the structure shown. Where two headings read alike, the source gives them in different places.

Columns and labels:
S.aureus = experiment: in vitro MIC by serial dilution, S.aureus; format: cell-based, Staphylococcus aureus; conditions: for MIC: Staphylococcus aureus, read-out: MIC (minimal inhibitory concentration); for antistaphylococcal activity: in words, compared with cephazolin and cephalothin
Description: (§1) A series of comparative tests was carried out in vitro with the method of serial dilutions in Penassay Seed Broth Difco inoculated with 10^4 bacteria/ml (overnight cultures).
(§2) Table 1 below reports the results of the above assays as MIC (minimal inhibitory concentration, mcg/ml).

S.flexneri = experiment: in vitro MIC by serial dilution, S.flexneri; format: cell-based; conditions: Shigella flexneri, read-out: MIC (minimal inhibitory concentration)
Description: as §1, §2

S.abortivoequina = experiment: in vitro MIC by serial dilution, S.abortivoequina; format: cell-based; conditions: Salmonella, read-out: MIC (minimal inhibitory concentration)
Description: as §1, §2

S.pyogenes = experiment: in vitro MIC by serial dilution, S.pyogenes; format: cell-based; conditions: Streptococcus pyogenes, read-out: MIC (minimal inhibitory concentration)
Description: as §1, §2

Staphylococcus aureus = experiment: in vivo therapeutic activity on mice experimentally infected with Staphylococcus aureus; parameters: species or system male Swiss Cobs albino mice; conditions: for ED50: Staphylococcus aureus, sc, 168 h, Table 2, 2 LD50/mouse i.p., subcutaneous treatment 4 h after infection, 7 days, read-out: ED50 (dose effective in curing 50% of the infected mice); for effectiveness on experimental staphylococcal infections: in words, compared with cephazolin and cephalothin
Description: (§3) In vivo tests for therapeutic activity were carried out on mice experimentally infected with Staphylococcus aureus and Salmonella abortivoequina (Infective dose: 2 LD50 /mouse i.p.); groups of 6 male Swiss Cobs albino mice were used. The infected animals were treated by the subcutaneous route 4 h after infection. The mortality rate was recorded every day for 7 days. The activity was assessed as ED50 (Dose effective in curing 50% of the infected mice as mg/Kg--see Reed and Muench, Am. J. Hyg. 27, 493, 1938.)

P.mirabilis = experiment: in vitro MIC by serial dilution, P.mirabilis; format: cell-based; conditions: Proteus mirabilis, read-out: MIC (minimal inhibitory concentration)
Description: as §1, §2

S.typhimurium = experiment: in vitro MIC by serial dilution, S.typhimurium; format: cell-based; conditions: Salmonella enterica, read-out: MIC (minimal inhibitory concentration)
Description: as §1, §2

E.coli B = experiment: in vitro MIC by serial dilution, E.coli B; format: cell-based; conditions: Escherichia coli, read-out: MIC (minimal inhibitory concentration)
Description: as §1, §2

K.pneumoniae = experiment: in vitro MIC by serial dilution, K.pneumoniae; format: cell-based; conditions: Klebsiella pneumoniae, read-out: MIC (minimal inhibitory concentration)
Description: as §1, §2

[1] = system: Salmonella abortivoequina; experiment: in vivo therapeutic activity on mice experimentally infected with Salmonella abortivoequina; parameters: species or system male Swiss Cobs albino mice; conditions: sc, 168 h
Description: as §3

[2] = S.aureus, serial dilutions in Penassay Seed Broth Difco, 10^4 bacteria/ml
[3] = S.flexneri, serial dilutions in Penassay Seed Broth Difco, 10^4 bacteria/ml
[4] = S.pyogenes, serial dilutions in Penassay Seed Broth Difco, 10^4 bacteria/ml
[5] = P.mirabilis, serial dilutions in Penassay Seed Broth Difco, 10^4 bacteria/ml
[6] = S.typhimurium, serial dilutions in Penassay Seed Broth Difco, 10^4 bacteria/ml
[7] = E.coli B, serial dilutions in Penassay Seed Broth Difco, 10^4 bacteria/ml
[8] = K.pneumoniae, serial dilutions in Penassay Seed Broth Difco, 10^4 bacteria/ml
[9] = S.abortivoequina, serial dilutions in Penassay Seed Broth Difco, 10^4 bacteria/ml
[10] = mice infected with Salmonella abortivo equina, subcutaneous 4 h after infection, read-out: ED50

| Structure (SMILES) | MIC (S.aureus; [2]) [µg/mL] | antistaphylococcal activity (S.aureus) | MIC (S.flexneri; [3]) [µg/mL] | MIC (S.pyogenes; [4]) [µg/mL] | ED50 (Staphylococcus aureus) [mg/kg] | MIC (P.mirabilis; [5]) [µg/mL] | MIC (S.typhimurium; [6]) [µg/mL] | MIC (E.coli B; [7]) [µg/mL] | MIC (K.pneumoniae; [8]) [µg/mL] | MIC (S.abortivoequina; [9]) [µg/mL] | further results |
| --- | --- | --- | --- | --- | --- | --- | --- | --- | --- | --- | --- |
| O=C(CSc1cnccn1)NC1C(=O)N2C(C(=O)O)=C(CSc3c[n+]([O-])ccn3)CSC12 (centres unmarked) [Compound 316, 7-pyrazinylthioacetamido-3-(pyrazin-2-ylthiomethyl-4-oxide)-3-cephem-4-carboxylic acid] | 0.025 (≈ 0.0508 µM) | excellent antistaphylococcal activity, clearly superior to that of known cephalosporins | 12.5 (≈ 25.4 µM) | 2.5 (≈ 5.08 µM) | 40 | > 50 | 50 (≈ 102 µM) | 5 (≈ 10.2 µM) | 2.5 (≈ 5.08 µM) | – | MIC (S.abortivoequina): 12.5 µg/mL (≈ 25.4 µM) |
| O=C(Cn1cnnn1)NC1C(=O)N2C(C(=O)O)=C(CSc3cnccn3)CSC12 (centres unmarked) [Compound 318, 7-[1-(1H)-tetrazolylacetamido]-3-pyrazinylthiomethyl-3-cephem-4-carboxylic acid] | 0.097 (≈ 0.223 µM) | – | 3.1 (≈ 7.14 µM) | – | – | 12.5 (≈ 28.8 µM) | 12.5 (≈ 28.8 µM) | 6.25 (≈ 14.4 µM) | 3.1 (≈ 7.14 µM) | 3.1 (≈ 7.14 µM) | – |
| O=C(Cc1ccccc1)NC1C(=O)N2C(C(=O)O)=C(CSc3c[n+]([O-])ccn3)CSC12 (centres unmarked) [356/307, 7-phenylacetamido-3-(pyrazin-2-ylthiomethyl-4-oxide)-3-cephem-4-carboxylicacid] | 0.012 (≈ 0.0262 µM) | excellent antistaphylococcal activity, clearly superior to that of known cephalosporins | 12.5 (≈ 27.3 µM) | 1.5 (≈ 3.27 µM) | – | – | – | 6 (≈ 13.1 µM) | 1.5 (≈ 3.27 µM) | 25 (≈ 54.5 µM) | – |
| O=C(CSc1cnccn1)NC1C(=O)N2C(C(=O)O)=C(CSc3cncc(Cl)n3)CSC12 (centres unmarked) [Compound 315, 7-pyrazinylthioacetamido-3-(6-chloropyrazin-2-ylthiomethyl)-3-cephem-4-carboxylic acid] | 0.006 (≈ 0.0117 µM) | excellent antistaphylococcal activity, clearly superior to that of known cephalosporins | 50 (≈ 97.8 µM) | 1.25 (≈ 2.45 µM) | 40 | > 50 | > 50 | 2.5 (≈ 4.89 µM) | 1.25 (≈ 2.45 µM) | > 50 | – |
| CC(=O)OCC1=C(C(=O)O)N2C(=O)C(NC(=O)CSc3cnccn3)C2SC1 (centres unmarked) [Compound 312, 7-pyrazinylthioacetamidocephalosporanic acid] | – | – | – | 3.1 (≈ 7.3 µM) | 40 | – | – | – | 1.5 (≈ 3.53 µM) | 25 (≈ 58.9 µM) | MIC (S.aureus): 0.12 µg/mL (≈ 0.283 µM); MIC (S.flexneri): 12.5 µg/mL (≈ 29.4 µM); MIC (E.coli B): 5 µg/mL (≈ 11.8 µM) |
| COc1nccnc1SCC1=C(C(=O)O)N2C(=O)C(NC(=O)Cc3cccs3)C2SC1 (centres unmarked) [Compound 317, 7-(2-thienyl)-acetamido-3-(3-methoxy-pyrazin-2-ylthiomethyl)-3-cephem-4-carboxylic acid] | 0.005 (≈ 0.0104 µM) | – | 50 (≈ 104 µM) | – | – | 50 (≈ 104 µM) | > 50 | 1.5 (≈ 3.13 µM) | 1.5 (≈ 3.13 µM) | > 50 | – |
| O=C(Cc1cccs1)NC1C(=O)N2C(C(=O)O)=C(CSc3cnccn3)CSC12 (centres unmarked) [Compound 314, 7-(2-thienyl)-acetamido-3-pyrazinylthiomethyl-3-cephem-4-carboxylic acid] | 0.003 (≈ 0.00669 µM) | – | 6.25 (≈ 13.9 µM) | 1.25 (≈ 2.79 µM) | 20 | 25 (≈ 55.7 µM) | – | 0.6 (≈ 1.34 µM) | 0.6 (≈ 1.34 µM) | – | MIC (S.abortivoequina): 6.25 µg/mL (≈ 13.9 µM); MIC (S.typhimurium; TYPHIMURIUM): 6.25 µg/mL (≈ 13.9 µM) |
| NC(=O)c1cncc(SCC2=C(C(=O)O)N3C(=O)C(NC(=O)Cc4cccs4)C3SC2)n1 (centres unmarked) [Compound 313, 7-(2-thienyl)-acetamido-3-(6-carboxamidopyrazin-2-ylthiomethyl)-3-cephem-4-carboxylic acid] | 0.012 (≈ 0.0244 µM) | excellent antistaphylococcal activity, clearly superior to that of known cephalosporins | 6.25 (≈ 12.7 µM) | 1.25 (≈ 2.54 µM) | 20 | 50 (≈ 102 µM) | 12.5 (≈ 25.4 µM) | 2.5 (≈ 5.09 µM) | 1.25 (≈ 2.54 µM) | – | MIC (S.abortivoequina): 6.25 µg/mL (≈ 12.7 µM); effectiveness on experimental staphylococcal infections (Staphylococcus aureus): more effective than cephazolin and cephalothin |
| NC(=O)c1cncc(SCC2=C(C(=O)O)N3C(=O)C(NC(=O)Cc4ccccc4)C3SC2)n1 (centres unmarked) [Compound 311, 7-phenylacetamido-3-(6-carboxamidopyrazin-2-ylthiomethyl)-3-cephem-4-carboxylic acid] | 0.06 (≈ 0.124 µM) | – | 12.5 (≈ 25.7 µM) | 1.5 (≈ 3.09 µM) | 17.5 | > 50 | – | 5 (≈ 10.3 µM) | 1.5 to 2.5 (≈ 3.09 to 5.15 µM) | > 50 | effectiveness on experimental staphylococcal infections (Staphylococcus aureus): more effective than cephazolin and cephalothin |
| COc1cncc(SCC2=C(C(=O)O)N3C(=O)C(NC(=O)Cc4cccs4)C3SC2)n1 (centres unmarked) [Compound 321, 7-(2-Thienyl)-acetamido-3-(6-methoxypyrazin-2-ylthiomethyl)-3-cephem-4-carboxylic acid] | 0.037 (≈ 0.0773 µM) | – | 10 (≈ 20.9 µM) | 0.12 (≈ 0.251 µM) | 15 | 10 (≈ 20.9 µM) | 20 (≈ 41.8 µM) | 1.25 (≈ 2.61 µM) | 0.25 (≈ 0.522 µM) | 20 (≈ 41.8 µM) | ED50 [1, 10]: 50 mg/kg |
| O=C(Cc1ccccc1)NC1C(=O)N2C(C(=O)O)=C(CSc3cncc(Cl)n3)CSC12 (centres unmarked) [Compound 310, 7-phenylacetamido-3-(6-chlorpyrazin-2-ylthiomethyl)-3-cephem-4-carboxylic acid] | 0.06 (≈ 0.126 µM) | excellent antistaphylococcal activity, clearly superior to that of known cephalosporins | > 50 | 6.2 (≈ 13 µM) | 35 | – | – | 0.6 (≈ 1.26 µM) | 0.1 (≈ 0.21 µM) | 50 (≈ 105 µM) | – |
| Cc1nnc(SCC2=C(C(=O)O)N3C(=O)[C@@H](NC(=O)Cn4cnnn4)[C@H]3SC2)s1 [cephazolin, reference compound] | 0.1 (≈ 0.22 µM) | – | 1.5 (≈ 3.3 µM) | 1.25 (≈ 2.75 µM) | 30 | 3.1 (≈ 6.82 µM) | 1.5 (≈ 3.3 µM) | 1.25 (≈ 2.75 µM) | 0.6 (≈ 1.32 µM) | 1.25 (≈ 2.75 µM) | ED50 [1, 10]: 25 mg/kg |
| O=C(Cc1ccccc1)NC1C(=O)N2C(C(=O)O)=C(CSc3cnccn3)CS[C@H]12 (some centres unmarked) [Compound 308, 7-phenylacetamido-3-pyrazinylthiomethyl-3-cephem-4-carboxylic acid] | 0.012 (≈ 0.0271 µM) | excellent antistaphylococcal activity, clearly superior to that of known cephalosporins | 50 (≈ 113 µM) | 1.5 (≈ 3.39 µM) | 17.5 | 50 (≈ 113 µM) | – | 1 to 2 (≈ 2.26 to 4.52 µM) | 0.75 (≈ 1.69 µM) | 100 (≈ 226 µM) | effectiveness on experimental staphylococcal infections (Staphylococcus aureus): more effective than cephazolin and cephalothin |
| CC(=O)OCC1=C(C(=O)O)N2C(=O)[C@@H](NC(=O)Cc3cccs3)[C@H]2SC1 [cephalothin, reference compound] | 0.1 (≈ 0.252 µM) | – | 1.5 (≈ 3.78 µM) | – | 30 | – | – | 1.25 (≈ 3.15 µM) | – | – | ED50 ([1]; Salmonella): 50 mg/kg; MIC (S.abortivoequina): 1.5 µg/mL (≈ 3.78 µM); MIC (S.pyogenes): 1.25 µg/mL (≈ 3.15 µM); MIC (P.mirabilis): 6.2 µg/mL (≈ 15.6 µM); MIC (S.typhimurium; TYPHIMURIUM): 3 µg/mL (≈ 7.57 µM); MIC (K.pneumoniae): 0.3 µg/mL (≈ 0.757 µM) |
